# How the values were obtained:
# [1] = system: CD19 directed CAR-expressing T cells; test: Antigen-dependent cytokine production by CD19 directed CAR-expressing T cells; format: cell-based, human; conditions: compared to vehicle control or equimolar concentrations of lenalidomide
# Source text: […]. […] Data represents the mean+/−S.D. across 3 experiments.
# [2] = given for five days followed by a two day rest period (5/7 days), subjects with DLBCL; cited from earlier work
# [3] = system: Granta-519 or Raji target cells; test: Cytokine production and cytolytic activity of anti-CD19 CAR+ T cells with Granta-519 or Raji target cells; format: cell-based, human
# Experimental: Similar studies as above were conducted using Granta-519 or Raji target cells to assess cytokine production and cytolytic activity of anti-CD19 CAR-expressing T cells upon co-culture with the target cells. As shown in FIG. 33B Raji cells were selected due to high expression of cell surface molecule CD19 when compared to Granta-519, as quantified by flow cytometry. Enumeration of CD19 was inferred by a standard curve generated using molecules of equivalent soluble fluorophore beads.
# After 24 hours of culture cytokine production was monitored in the supernatant. […] Cytolytic activity also was measured for pooled donors over time of the co-culture.
# phosphorylated STAT5 = test: Phosphorylated STAT5 in CAR T cells incubated with conditioned supernatants; format: cell-based, human; conditions: both concentrations used
# Experimental: Conditioned supernatants from stimulated CAR T cultures were harvested after overnight treatment and incubated with freshly thawed CAR T cells from three donors alone or in the presence of a blocking IL-2 antibody. After short term stimulation, CAR T cells were then assessed by flow cytometry for phosphorylated STAT5.
# anti-CD19 CAR T cells = test: RNA-seq of CAR T cells sorted from tumor spheroids, Compound 1 after chronic stimulation; format: cell-based, human; conditions: 0.1 μM and 1 μM after chronic stimulation
# Experimental: Gene expression analysis of CAR T cells sorted from tumor spheroids 5 days after co-culture was analyzed by RNA sequencing (RNA-seq) on the complementary DNA (cDNA) samples prepared from the RNA isolated from the long-term stimulated CAR-expressing T cells or on CAR-expressing T cells that had not undergone the long-term stimulation. […] Differential locus selection cut off was q<0.05 and absolute log 2 fold change>0.5 for RNA-seq.
# [4] = system: BCMA-expressing RPMI-8226 MM cells; test: Rescue of chronically stimulated anti-BCMA CAR T cells rechallenged with RPMI-8226 MM cells; format: cell-based; conditions: 1 nm or 10 nM during rechallenge
# Experimental: Studies were undertaken to determine whether Compound 2 rescued anti-BCMA CAR T cell function following chronic stimulation. To directly stimulate via CAR engagement to induce chronic stimulation of cells, anti-BCMA CAR T cells were stimulated with BCMA conjugated beads (diameter about 4.5 pm from a 50 μg/ml BCMA-conjugated bead composition, generated as described in Example 9) at a ratio of T cells to beads of 1:1. The cells were then incubated at 37° C., 5% CO2 for 7 days.
# Cultures were incubated at 37° C., 5% CO2, and images were taken every 2 hours over 5-7 days with an Essen IncuCyte Zoom live-cell analysis system to track NucLightRed-positive target cells.
# [5] = system: Granta-519 tumor spheroids; test: Granta-519 spheroid tumor growth assay after concurrent treatment during chronic stimulation; format: cell-based, human
# Source text: Averaged measurement of tumor spheroid size at various times following co-culture with CAR-T cells was monitored.
# The log 2 fold change compared to control cells (chronically stimulated cells that had not been concurrently treated with immunomodulatory compound) is shown in FIG. 48E. […] The results further support that immunomodulatory compounds during conditions that can promote exhaustion, such as during chronic stimulation, can improve or preserve CAR T cell function and limit, reduce or prevent CAR T cell exhaustion.
# anti-CD19 CAR+ T cells = test: IL-10 in supernatants of anti-CD19 CAR+ T cells incubated with K562-CD19 cells; format: cell-based, human; conditions: E:T 3:1 or 9:1, 24 hours
# [6] = system: K562 cells transduced to express CD19; test: Cytolytic activity of anti-CD19 CAR+ T cells against K562-CD19 cells; conditions: 1-5000 nM, E:T 2.5:1, about 120 hours
# RPMI-8226 [7] = conditions: read-out: sensitivity to lenalidomide; cited from earlier work
# K562-CD19 cells = test: Cytolytic activity of serially restimulated anti-CD19 CAR+ T cells against K562-CD19 cells; format: cell-based, human; conditions: 1 μM, 2nd and 4th restimulation
# Experimental: Cells from each condition were plated in triplicate. Representative cell killing observed at the 2nd and 4th restimulation for both donors is shown in FIG. 18A (as normalized to K562—CD19-Nuc-labeled cells at t=0) or in FIG. 18B (% cell killing compared to vehicle only control (set at 100%)).
# anti-BCMA CAR T cells = test: Cytokine expression of anti-BCMA CAR T cells stimulated with BCMA-conjugated beads; format: cell-based, human; conditions: 24 hours
# Experimental: Cryofrozen anti-BCMA CAR T cells, produced substantially as described in Example 1 and formulated at a 1:1 ratio of CD4+ and CD8+ T cells, were thawed.
# Twenty four hours after addition of BCMA-conjugated beads, the presence of TNF-α, IFNγ, and IL-2 in culture supernatants was assessed.
# In a further exemplary study, two different anti-BCMA CAR T cell compositions were generated from different donors, each containing T cells expressing the same anti-BCMA CAR. The cells were thawed and incubated with beads (diameter about 4.5 pm) from a 5 μg/mL or 200 μg/mL BCMA-conjugated bead composition generated as described in Example 1. […] Twenty four hours after addition of BCMA-conjugated beads, IL-2 production by the anti-BCMA CAR+ T cells was assessed in culture supernatants.
# The cells were gated on transduced, live CD3+ cells, and assessed by flow cytometry for intracellular cytokine accumulation of IFNγ and TNFα in CD4+ and CD8+ cells.
# RPMI-8226 [8] = test: 3D myeloma model (reconstructed bone marrow embedded with RPMI-8226); format: cell-based, human; conditions: 1.0 μM
# Source text: To assess cell function in the context of a three-dimensional (3-D) human BCMA-expressing tissue microenvironment, a reconstructed bone marrow (rBone™) (z[…], San Jose, CA) was embedded with BCMA-expressing RPMI-8226.
# After 2 or 7 days, cells were isolated and assessed by flow cytometry for surface expression of CD3, CD25, CD4, and CD8.
# OPM-2 = conditions: read-out: sensitivity to lenalidomide; cited from earlier work
# RPMI-8226 [9] = system: RPMI-8226
# Source text: T cells were isolated by immunoaffinity-based enrichment from leukapheresis samples from healthy donors. Isolated cells were transduced with a viral vector encoding one of various exemplary anti-BCMA CARs. Each anti-BCMA CAR contained a human anti-BCMA scFv, a spacer region, a CD28 transmembrane domain, a 4-1BB-derived intracellular co-signaling sequence, and a CD3-zeta derived intracellular signaling domain. The viral vector construct further encoded a truncated EGFR (EGFRt), which served as a surrogate marker for CAR expression; the EGFRt-coding region was separated from the CAR sequence by a T2A skip sequence. After transduction, cells were expanded and the resulting compositions were frozen by cryopreservation.
# The target RPMI-8226 cells were labeled with NucLight Red (NLR) to permit their tracking by microscopy. […] Normalized target cell numbers were generated by dividing target cell counts to cell counts at the start of each culture.
# The studies above were extended on anti-BCMA CAR+ T cells generated from cells from two additional healthy donors. […] Cytolytic activity and cytokine production (IFNγ, IL-2 and TNF-α) were assayed substantially as described above. Absolute changes in cytokine levels relative to the vehicle control were calculated. Experiments were performed 2 to 3 times in each donor.
smiles,measurement,setting,value
"Cc1nc2cccc(N)c2c(=O)n1C1CCC(=O)NC1=O (stereo not drawn) [Compound 1, 3-(5-amino-2-methyl-4-oxo-4H-quinazolin-3-yl)-piperidine-2,6-dione]",levels of IFNγ and IL-2,[1],increased levels
same,maximum tolerated dose (MTD),[2],4 mg
same,IL-2 production,"[3]; 100 or 1000 nM, 2.5:1 E:T, 24 hours",increase compared to control
same,IFN-γ production,"[3]; 100 or 1000 nM, 2.5:1 E:T, 24 hours, CD8+ CAR-expressing T cells",concentration dependent increase
same,cytolytic activity over time,"[3]; pooled donors, CD8+ CAR-expressing T cells",limited effect
same,median fluorescence intensity of phosphorylated STAT5 (pSTAT5),phosphorylated STAT5,increased
same,"expression of genes associated with a hypofunctional, exhausted state",anti-CD19 CAR T cells,partial reversal of expressed genes
"O=C1CC[C@H](N2Cc3c(OCc4ccc(CN5CCOCC5)cc4)cccc3C2=O)C(=O)N1 [Compound 2, (S)-3-[4-(4-morpholin-4-ylmethyl-benzyloxy)-1-oxo-1,3-dihydro-isoindol-2-yl]-piperidine-2,6-dione]",cytolytic activity of chronically stimulated anti-BCMA CAR T cells,[4]; 0.3:1 E:T,improvement in cytolytic activity
same,"production of IFN-gamma, IL-2 or TNF-alpha",[4]; 24 hours,increased production
same,cytolytic function against Granta-519 tumor spheroids (tumor volume after 9 days),[5]; 0.001 μM or 0.01 μM concurrent,significantly increased cytolytic function
same,IFNγ in supernatant,"[5]; 5 days co-culture, concurrent treatment",statistically significant increase
same,improvement in cytolytic function compared with Compound 1,[5]; concurrent treatment,greater with concurrent treatment with Compound 2 than Compound 1
"Nc1cccc2c1CN(C1CCC(=O)NC1=O)C2=O (stereo not drawn) [lenalidomide, 3-(4-amino-1-oxo-1,3-dihydro-2H-isoindol-2-yl)piperidine-2,6-dione]",secretion and/or accumulation of IL-10 in supernatants,anti-CD19 CAR+ T cells,dose-dependently increased
same,CAR-mediated cytolytic activity,[6],reduced
same,IC50,RPMI-8226 [7],6.43 µM
same,anti-CD19 CAR+ T cell cytolytic activity,K562-CD19 cells,decrease
same,intracellular IFNγ and TNFα cytokine production,"anti-BCMA CAR T cells; 0.1 μM or 1 μM, 5, 50 or 200 μg/mL BCMA beads",increased
same,IL-2 production in culture supernatants,"anti-BCMA CAR T cells; 1 μM or 5 μM, 5 or 200 μg/mL BCMA beads, two donors",increased
same,"BCMA-induced CAR+ T cell cytokine production (TNF-α, IFNγ, IL-2 in supernatants)","anti-BCMA CAR T cells; 5 μM, 5 or 50 μg/mL BCMA beads",increased
same,CD25+ expression in CD4+ and CD8+ T cell populations,RPMI-8226 [8],increase
same,total number of CD3+ cells at day 7,RPMI-8226 [8]; cultures with anti-BCMA CAR+ T cells,increase
same,IC50,OPM-2,37.4 µM
same,target cell killing by anti-BCMA CAR+ T cells by day 6,"RPMI-8226 [9]; 1 μM or 10 μM, E:T 0.3:1, vs absence of lenalidomide",greater degree of target cell killing
same,treatment effect on CAR T cytolytic activity in co-culture with RPMI-8226,RPMI-8226 [9]; three healthy donors and one IMiD-refractory patient,donor-dependent
